Measured values published in patent US20200267980A1, “Herbicidally Active Pyridyl-/Pyrimidyl-Pyrimidine Derivatives” (Syngenta Participations AG, priority 2017, published 2020).

Legend:
Assay type in all cases: in vivo
[1] = system: Alopecurus myosuroides (ALOMY); test: Post-emergence herbicidal activity, glasshouse pot test; set-up: key: 5=total damage to plant; 0=no damage to plant; settings: 1000 g/ha, post-emergence spray after 8 days cultivation, evaluated after 13 days, damage score 0-5
Procedure: (§1) Seeds of a variety of test species were sown in standard soil in pots: Triticum aestivium (TRZAW), Avena fatua (AVEFA), Alopecurus myosuroides (ALOMY), Echinochloa crus-galli (ECHCG), Lolium perenne (LOLPE), and Setaria faberi (SETFA). After 8 days cultivation (post-emergence) under controlled conditions in a glasshouse (at 24/16° C., day/night; 14 hours light; 65% humidity), the plants were sprayed with an aqueous spray solution derived from the formulation of the technical active ingredient in acetone/water (50:50) solution containing 0.5% Tween 20 (polyoxyethelyene sorbitan monolaurate, CAS RN 9005-64-5). The test plants were then grown in a glasshouse under controlled conditions (at 24/16° C., day/night; 14 hours light; 65% humidity) and watered twice daily. After 13 days, the test was evaluated (5=total damage to plant; 0=no damage to plant).

[2] = system: Triticum aestivium (TRZAW); test: as above; set-up: key: 5=total damage to plant; 0=no damage to plant; settings: 1000 g/ha, post-emergence spray after 8 days cultivation, evaluated after 13 days, damage score 0-5
Procedure: as §1

Setaria faberi (SETFA) [3] = test: as above; set-up: key: 5=total damage to plant; 0=no damage to plant; settings: 1000 g/ha, post-emergence spray after 8 days cultivation, evaluated after 13 days, damage score 0-5
Procedure: as §1

Lolium perenne (LOLPE) [4] = test: as above; set-up: key: 5=total damage to plant; 0=no damage to plant; settings: 1000 g/ha, post-emergence spray after 8 days cultivation, evaluated after 13 days, damage score 0-5
Procedure: as §1

[5] = system: Echinochloa crus-galli (ECHCG); test: as above; set-up: key: 5=total damage to plant; 0=no damage to plant; settings: 1000 g/ha, post-emergence spray after 8 days cultivation, evaluated after 13 days, damage score 0-5
Procedure: as §1

Avena fatua (AVEFA) [6] = test: Pre-emergence herbicidal activity, glasshouse pot test; set-up: key: 5=total damage to plant; 0=no damage to plant; settings: 1000 g/ha, pre-emergence spray, evaluated after 13 days, damage score 0-5
Procedure: as §1, with “After” for “After 8 days”, “for one day (pre-emergence)” for “(post-emergence)”

[7] = system: Alopecurus myosuroides (ALOMY); test: as above; set-up: key: 5=total damage to plant; 0=no damage to plant; settings: 1000 g/ha, pre-emergence spray, evaluated after 13 days, damage score 0-5
Procedure: as §1, with “After” for “After 8 days”, “for one day (pre-emergence)” for “(post-emergence)”

[8] = system: Triticum aestivium (TRZAW); test: as above; set-up: key: 5=total damage to plant; 0=no damage to plant; settings: 1000 g/ha, pre-emergence spray, evaluated after 13 days, damage score 0-5
Procedure: as §1, with “After” for “After 8 days”, “for one day (pre-emergence)” for “(post-emergence)”

Lolium perenne (LOLPE) [9] = test: as above; set-up: key: 5=total damage to plant; 0=no damage to plant; settings: 1000 g/ha, pre-emergence spray, evaluated after 13 days, damage score 0-5
Procedure: as §1, with “After” for “After 8 days”, “for one day (pre-emergence)” for “(post-emergence)”

[10] = system: Echinochloa crus-galli (ECHCG); test: as above; set-up: key: 5=total damage to plant; 0=no damage to plant; settings: 1000 g/ha, pre-emergence spray, evaluated after 13 days, damage score 0-5
Procedure: as §1, with “After” for “After 8 days”, “for one day (pre-emergence)” for “(post-emergence)”

Avena fatua (AVEFA) [11] = test: Post-emergence herbicidal activity, glasshouse pot test; settings: 1000 g/ha, post-emergence spray after 8 days cultivation, evaluated after 13 days, damage score 0-5
Procedure: as §1

Setaria faberi (SETFA) [12] = test: Pre-emergence herbicidal activity, glasshouse pot test; set-up: key: 5=total damage to plant; 0=no damage to plant; settings: 1000 g/ha, pre-emergence spray, evaluated after 13 days, damage score 0-5
Procedure: as §1, with “After” for “After 8 days”, “for one day (pre-emergence)” for “(post-emergence)”

SMILES	Control of weed species after post-emergence application, ALOMY [1]	Control of weed species after post-emergence application, TRAZW [2]	Control of weed species after post-emergence application, SETFA (Setaria faberi (SETFA) [3])	Control of weed species after post-emergence application, LOLPE (Lolium perenne (LOLPE) [4])	Control of weed species after post-emergence application, ECHCG [5]	Control of weed species after pre-emergence application, AVEFA (Avena fatua (AVEFA) [6])	Control of weed species after pre-emergence application, ALOMY [7]	Control of weed species after pre-emergence application, TRAZW [8]	Control of weed species after pre-emergence application, LOLPE (Lolium perenne (LOLPE) [9])	Control of weed species after pre-emergence application, ECHCG [10]	Control of weed species after post-emergence application, AVEFA (Avena fatua (AVEFA) [11])	Control of weed species after pre-emergence application, SETFA (Setaria faberi (SETFA) [12])
CC(=O)Nc1cnc(-c2cncc(F)c2)nc1C(F)(F)F [Compound F11]	1	1	5	2	4	2	0	0	1	4	3	–
O=C(Nc1cnc(-c2cncc(F)c2)nc1C(F)(F)F)c1ccccc1 [Compound F10]	0	1	5	1	5	1	0	0	1	4	2	4
CCC(=O)Nc1cnc(-c2cncc(F)c2)nc1C(F)(F)F [Compound F4]	0	1	4	2	4	3	1	0	0	3	4	4
O=C(Nc1cnc(-c2cncc(F)c2)nc1C(F)(F)F)C1CC1 [Compound F14, N-[2-(5-fluoro-3-pyridyl)-4-(trifluoromethyl)-pyrimidin-5-yl]cyclopropanecarboxamide]	0	1	5	4	5	2	0	0	2	4	3	–
Cc1nc(-c2cncnc2)ncc1N(C(=O)C(C)C)C(=O)C(C)C [Compound F2, 2-methyl-N-(2-methylpropanoyl)-N-(4-methyl-2-pyrimidin-5-yl-pyrimidin-5-yl)propanamide]	0	0	–	1	5	2	0	0	0	4	3	5
COCCC(=O)Nc1cnc(-c2cncc(F)c2)nc1C(F)(F)F [Compound F15]	0	1	5	2	4	2	0	0	0	4	3	–
CCCCC(=O)Nc1cnc(-c2cncc(F)c2)nc1C(F)(F)F [Compound F12]	0	0	5	2	4	2	0	0	1	3	3	–
CC(C)C(=O)Nc1cnc(-c2cncc(F)c2)nc1C(F)(F)F [Compound F13]	0	0	5	2	5	2	0	0	1	4	3	–
Cc1nc(-c2cncnc2)ncc1NC(=O)C(C)C [Compound F1, 2-methyl-N-(4-methyl-2-pyrimidin-5-yl-pyrimidin-5-yl)propanamide]	0	0	–	1	4	2	0	0	0	3	3	5
